According to paper PMC12040169 (PLOS Biology, 2025):

test: in vitro; conditions: human, hela cells, % viability

In order of falling viability at 28.5 h, 10 µM:
1. COC(=O)c1ccccc1NC(=O)CN(c1cccc(Cl)c1Cl)S(C)(=O)=O [CBK264612]  115%
2. Cn1nc(C2CCN(C(=O)CC3CCCC3)CC2)c2cccnc21 [CBK284943]  111%
3. O=C1CC(Sc2ccccc2)C(=O)N1c1ccc(Cc2ccc(N3C(=O)CC(Sc4ccccc4)C3=O)cc2)cc1 (stereo not drawn) [CBK263797]  110%
4. CCCC(=O)Nc1nc(-c2ccc(C)cc2)c(C)s1 [CBK287763]  110%
5. COc1ccc(C2(C(=O)NCc3c(F)cccc3F)CC2)cc1 [CBK149826]  108%
6. COc1cc(C=CC(=O)O)ccc1OCC(=O)NCC(C)C [CBK296721]  107%
7. CCOc1ncccc1NC(=O)C(C)n1cccn1 (stereo not drawn) [CBK245377]  105%
8. COc1ccc(C(=O)Nc2nc(OCC(F)(F)F)cnc2/C=C\c2ccccc2)c(OC)c1 [CBK145367]  104%
9. CC1CC(C)CN(CCCNS(=O)(=O)c2ccc3c(c2)oc(=O)n3C)C1 (stereo not drawn) [CBK268695]  104%
10. O=C(N[C@H]1CCN2C(=O)N(c3ccc(Br)cc3)C(=O)[C@@H]2C1)c1cccnc1 [CBK289557]  104%
11. N#Cc1ccc(CN2CCN(S(=O)(=O)c3ccc(-n4cnc(Cl)c4Cl)cc3)CC2)cc1 [CBK062972]  104%
12. O=C(C1CCCCC1)N1CC[C@H](c2nnc(-c3cccnc3)o2)C1 [CBK289412]  103%
13. CC(C)n1cc(C(=O)N2CCCCC2c2nc3ccccc3[nH]2)cn1 (stereo not drawn) [CBK283679]  102%
14. COc1ccc(S(=O)(=O)N2CCN(Cc3ccc4c(c3)OCO4)CC2)c(Cl)c1Cl [CBK074433]  102%
15. Cc1ncsc1CCOc1ccc(C(F)(F)F)cn1 [CBK115790]  101%
16. CCn1ncc(S(=O)(=O)N2CCCC(c3ccccc3)C2)c1C (stereo not drawn) [CBK282760]  100%
17. CC(=O)N(Cc1cccnc1)c1nc2cc3c(cc2s1)OCCO3 [CBK287696]  99.9%
18. COc1ccc(CC(=O)N2CCCC(c3cccc(Cc4cccc(C)c4)n3)C2)cc1 (stereo not drawn) [CBK286498]  99.8%
19. c1ccc2c(OCc3nc4c5c6c(sc5ncn4n3)CCCCC6)cccc2c1 [CBK264151]  99.6%
20. O=C(C1CCCCC1)N1CC(n2nc(-c3cccs3)ccc2=O)C1 [CBK283346]  99.2%
21. C=CCN1C(=O)CC2(C1=O)C(=O)N(Cc1ccc(S(=O)(=O)N(CC)CC)cc1)c1ccc(Cl)cc12 (stereo not drawn) [CBK075412]  98%
22. COc1n[nH]c(CO)c1Cc1c(Cl)cccc1Cl [CBK092283T]  97.3%
23. CCn1cc(-c2cncn2CCCn2nc(C)cc2C)cn1 [CBK281770]  97.1%
24. CC(NC(=O)Cn1cnc2ccccc21)c1ccccn1 (stereo not drawn) [CBK281884]  96.7%
25. O=C(c1cc(F)cc(F)c1)N1CCn2c(nnc2C2CC2)C1 [CBK283772]  95.9%
26. O=C(Nc1ccc(F)cc1)c1cccc(NS(=O)(=O)c2cc(Cl)sc2Cl)c1 [CBK038980]  95.8%
27. CC(C)c1cc(C(=O)N(Cc2ccccn2)CC2CCCO2)on1 (stereo not drawn) [CBK306579]  95.3%
28. O=C(NCCCCn1ccnc1)c1noc2c1CCCC2 [CBK283208]  93.9%
29. COc1cccc(-c2ccc(C(=O)Nc3ccc4c(c3)OCO4)c(N3CCOCC3)n2)c1 [CBK076509]  93.5%
30. O=C(O)CC1c2ccccc2Oc2ccccc21 [CBK261836]  92%
31. O=C(CSc1nnc(-c2ccc(Cl)cc2)n1-c1ccccc1)N/N=C/c1ccco1 [CBK262996]  91.6%
32. O=C(NCc1ccc(N2CCCC2=O)cc1)c1cc(Br)ccc1O [CBK296614]  91.2%
33. COc1ccc(Nc2cc(-c3ccc(CNC(=O)OC(C)(C)C)cc3)ncn2)c(OC)c1 [CBK090757]  90.8%
34. Cc1cc(NC(=O)CCn2c(C(F)F)cc3cccnc32)nn1C [CBK285071]  90.2%
35. COC(=O)C1CC(O)CC1C(=O)N1CCCC1 (stereo not drawn) [CBK011029]  89.6%
36. Cc1cc(C)n(CCCC(=O)N2CC3(CCNCC3)CC2C(=O)O)n1 (stereo not drawn) [CBK307174]  89.5%
37. COc1ccc(NCC(=O)N/N=C(\C)c2ccccc2O)cc1 [CBK263887]  86.3%
38. Cc1ccc2nc(-c3ccc(N4C(=O)CC(N5CCN(CCOCCO)CC5)C4=O)cc3)sc2c1 (stereo not drawn) [CBK265362]  86.1%
39. N#CCCCN1CCCN(c2cc(OCC3COc4ccccc4O3)ncn2)CC1 (stereo not drawn) [CBK083391T]  85.8%
40. FC(F)(F)c1ccnc(SCc2ccc(Cl)c(Cl)c2)n1 [CBK103723]  85.6%
41. O=C1NCCCc2nc(Nc3ccccc3)sc21 [CBK087091]  83.8%
42. O=C(Nc1ccc(F)cc1)c1ccsc1NS(=O)(=O)Cc1ccccc1 [CBK042303]  82.8%
43. O=C(c1ccco1)N1CCC[C@@H]1[C@@H](O)c1cccs1 [CBK284291]  80.7%
44. Cc1ncccc1C(=O)NC(CC(C)C)c1nnc2n1CCNCC2 (stereo not drawn) [CBK307348]  80.5%

same assay, conditions: human, hela cells, % viability, bulk resorufin, single well

`Cc1nc(C)c(C(=O)Nc2ccccc2-c2ccc3c(c2)COC2(CCNCC2)O3)s1` [CBK107628] gave a viability at 28.5 h, 10 µM of 96.8%.
